How the values were obtained:
[1] = test system: secretion of bile; experiment: Activity on the secretion of bile, intraduodenal administration; type: in vivo, Male Wister rats; settings: 5 hours
Experimental: A. Intraduodenal administration
Male Wister rats weighing 200 to 250 g were used, ten rats in each group. Each rat was fasted for 6 to 8 hours, and was thereafter fastened as laid on its back to a fixed table under ethereal anesthesia. The abdomen was cut open along the midline. A polyethylene tube was inserted into and attached to the common bile duct. The rat was then allowed to stand for a period of time (1 hour) to assure stabilized flow of bile. The amount of bile flowing out for the following period of 30 minutes was taken as 100 to serve as a control amount for the subsequent flow of bile.
Next, the drug to be tested was intraduodenally administered to the rat, and the amount of bile flowing out from the polyethylene tube dropwise was measured over a period of 5 hours. The amount was measured for every 30-minute period of the first 2 hours after the administration of the drug and then for every one-hour period. Sodium dehydrocholate, bile acid preparation serving as a known cholagogue, was used as a control drug.
The dose was 200 mg/kg (weight of rat) for bornyl glucoside, or 100 mg (drug)/kg (weight of rat) for other borneols and sodium dehydrocholate. The drugs were used as suspended in 4% aqueous solution of gum arabic. Experimental results

[2] = test system: solids weight of bile; experiment: Variations in the weight of solids in discharged bile; type: in vivo, rats; settings: intraduodenal, 100 mg/kg, 5 hours, pre-administration 30 minutes = 100
Experimental: A. Variations in the weight of solids in discharged bile
The bile portions obtained from the bile secretion experiment (1)-A by intraduodenal administration were collected respectively for the observation periods. A quantity of each bile portion was freeze-dried, and the solids weight was measured to determine the variations in the solids weight of bile over the 5-hour period. The solids weight of bile obtained during the 30-minute period before the administration of the test drug, e.g. (+)-borneol, was calculated as 100.

[3] = test system: secretion of bile; experiment: Activity on the secretion of bile, oral administration; type: in vivo, rats; settings: 5 hours
Experimental: B. Oral Administration As in the case of intraduodenal administration, the drug to be tested was orally administered to rats each having a polyethylene tube attached to the common bile duct, and the amount of bile flowing out was observed over a period of 5 hours.

[4] = test system: phospholipid content of bile; experiment: Variations in the phospholipid content of bile (Phospholipid B-Test Wako); type: in vivo, rats; settings: intraduodenal, 100 mg/kg, first one-hour period, pre-administration 30 minutes = 100
Experimental: (§1) B. Variations in the phospholipid and cholesterol contents of bile
(§2) Portions of the bile obtained during the first one-hour period of measurement in the bile secretion experiment (1)-A by intraduodenal administration were tested for phospholipid using Phospholipid B-Test Wako (enzyme method, Wako Pure Chemical Industries Ltd.) and for cholesterol using Cholesterol CII-Test Wako measuring kit(COD-p-chlorophenol color development method, Wako Pure Chemical Industries Ltd.). For the quantitative determination of phospholipid and cholesterol, a blank test was conducted, and a calibration curve prepared in advanced was used. The phospholipid and cholesterol contents of the bile flowing out during the period of 30 minutes before the administration of the test drug were taken as 100.

[5] = naturally occurring, used in oriental medicine as "Ryuno"; cited from earlier work
[6] = test system: bile acid contents of bile; experiment: Variations in bile acid contents of bile (high-speed liquid chromatography); type: in vivo, rats; settings: intraduodenal, 100 mg/kg, first one-hour period, pre-administration 30 minutes = 100
Excerpt: C. Variations in bile acid contents of bile
Each portion of bile obtained during the first one-hour period of measurement in the foregoing bile secretion experiment (1)-A by intraduodenal administration was partly collected, then diluted 40-fold with freshly distilled methanol and thereafter filtered with use of a 0.45-micron membrane filter (product of Toyo Roshi). The filtrate was subjected to high-speed liquid chromatography according to the method of Okuyama S. et al., Chemistry Letters, p 1443 (1979). The bile acid contents of the bile flowing out during each measurement period were determined with reference to calibration curves prepared in advance for cholic acid, ursodeoxycholic acid, chenodeoxycholic acid and deoxycholic acid, and also for glycine conjugates and taurine conjugates of these acids. The total bile acid content was determined from the results. The bile acid contents and the total bile acid content of the bile flowing out during the period of 30 minutes before the administration of the test drug were taken as 100.

[7] = Acute toxicity test; design: species or system male dd-Y mice; settings: mouse, in vivo; oral, mice, 7 days, Litchfield-Wilcoxon method, 95% reliability limit
Experimental: The drug to be tested was orally given to male dd-Y mice weighing about 20 g, ten mice in each group. The mice were thereafter observed for 7 days to determine the LD50 from the number of resulting deaths. During the 7-day observation period, the animals were allowed free access to diets and water. The LD50 was determined according to the Litchfield-Wilcoxon method.

[8] = test system: cholesterol content of bile; experiment: Variations in the cholesterol content of bile (Cholesterol CII-Test Wako); type: in vivo, rats; settings: intraduodenal, 100 mg/kg, first one-hour period, pre-administration 30 minutes = 100
Experimental: as §1, §2

SMILES: CC1(C)[C@@H]2CC[C@@]1(C)[C@@H](O)C2 (relative stereo) [(±)-borneol]
- cholagogic effect (amount of bile flowing out) ([1]; 100 mg/kg): also had a cholagogic effect

SMILES: CC1(C)[C@@H]2CC[C@@]1(C)[C@H](O)C2 (relative stereo) [isoborneol]
- cholagogic effect (amount of bile flowing out) ([1]; 100 mg/kg): also had a cholagogic effect

SMILES: CC1(C)[C@@H]2CC[C@@]1(C)[C@@H](O)C2 [(+)-borneol]
- variations in the solids weight of bile [2]: sustained effect to increase the amount of biliary constituents
- cholagogic effect (amount of bile flowing out) [3]: more sustained greater cholagogic effect than the control drug
- phospholipid content of bile [4]: approximately at the same level as those of the normal bile
- cholagogic effect (amount of bile flowing out) ([1]; 100 mg/kg): sustained great cholagogic effect over the entire observation period of 5 hours
- empirically known pharmacological activities [5]: analgesic, anti-inflammatory, sedative and anti-palpitation effects and central depressant activity
- bile acid contents of bile [6]: secretion of remarkably increased amounts of chenodeoxylic acid and like bile acids
- total bile acid content of bile [6]: remarkable increase in the total bile acid content
- LD50 at 168 h [7]: ≥ 10000 mg/kg
- cholesterol content of bile [8]: approximately at the same level as those of the normal bile

SMILES: CC1(C)[C@H]2CC[C@]1(C)[C@H](O)C2 [(-)-borneol]
- cholagogic effect (amount of bile flowing out) ([1]; 100 mg/kg): also had a cholagogic effect

SMILES: CC(=O)OC1CC2CCC1(C)C2(C)C (centres unmarked) [bornyl acetate]
- cholagogic effect (amount of bile flowing out) ([1]; 100 mg/kg): also had a cholagogic effect

SMILES: CC1(C)C2CCC1(C)C(OC1O[C@H](CO)[C@@H](O)[C@H](O)[C@H]1O)C2 (some centres unmarked) [bornyl glucoside]
- cholagogic effect (amount of bile flowing out) ([1]; 200 mg/kg (bornyl glucoside)): also had a cholagogic effect

SMILES: CC(=O)O[C@@H]1C[C@H]2CC[C@]1(C)C2(C)C [isobornyl acetate]
- cholagogic effect (amount of bile flowing out) ([1]; 100 mg/kg): also had a cholagogic effect

SMILES: C[C@H](CCC(=O)O)[C@H]1CC[C@H]2[C@@H]3C(=O)C[C@@H]4CC(=O)CC[C@]4(C)[C@H]3CC(=O)[C@]12C [sodium dehydrocholate, reference compound]
- phospholipid content of bile [4]: tendency for the phospholipid and cholesterol contents of bile to increase
- cholagogic effect (amount of bile flowing out) ([1]; 100 mg/kg): transient great cholagogic effect 30 minutes after the administration
- bile acid contents of bile [6]: slight transient tendency to produce increased amounts of bile acids including deoxycholic acid only 30 minutes after the administration
- LD50 at 168 h [7]: 2500 mg/kg
- cholesterol content of bile [8]: tendency for the phospholipid and cholesterol contents of bile to increase

Reference: patent US4931475A, “Cholagogue and/or gallstone solubilizer” (Hiya Pharmaceutical Co., Ltd., priority 1985, dated 1990)
